41 compounds from ChEMBL document CHEMBL5523756, “Molecular Transformers: Adaptive Multitarget Ligands for Esterase-Induced Transition from Analgesics to Anesthetics” (J Med Chem, 2024) can be followed below.

Molecules are shown by their SMILES. Calls of active or inactive are those of the source. Some results are limits rather than exact numbers.

A short description of data set [1]: Stability of compound assessed as porcine liver esterase mediated propofol release by measuring half life at 1 mg/ml by HPLC analysis. It is filed as ADME, Sus scrofa. To be noted: pig, isolated protein.
The target of data set [2] is T1, Sodium channel protein type 10 subunit alpha (Homo sapiens, UniProt Q9Y5Y9). The data set can be described thus: Inhibition of Nav1.8 channel (unknown origin) at -120 mV conditioning pulse by voltage clamp electrophysiological recording.
For data set [3], the target named is T1, Sodium channel protein type 10 subunit alpha. Nature of the data set: Binding affinity to Nav1.8 (unknown origin) expressed in HEK293T cells assessed as retention time of compound at 1 mg/ml by cell membrane chromatography. It is filed as cell membranes.
Data set [4] concerns Mus musculus. Nature of the data set: Analgesic effect in ICR mouse model of CFA-induced chronic inflammatory pain assessed as increase in paw withdrawal threshold at 0.07 mmol/kg, ip measured upto 90 mins by Von Frey test. It is filed as functional, organism-based.
Data set [5] has as its target GABA-A receptor; alpha-1/beta-2/gamma-2 (Homo sapiens) (UniProt P14867+P47870+P18507). The data set can be described thus: Agonist activity at alpha1beta2gamma2 GABA-A receptor (unknown origin) at 10 uM at -70 mV holding potential by electrophysiological recording. In kind it is protein-complex assay. To be noted: filed as agonist.
Data set [6] is described as follows: Toxicity in ICR mouse assessed as survival rate at 1.5 times ED50 administered intravenously. To be noted: in vivo, route iv.
For data set [7], the system named is Mus musculus. The data set can be described thus: Anesthetic effect in iv dosed ICR mouse by up-and-down method. It is filed as functional.
The target in data set [8] is T1, Sodium channel protein type 10 subunit alpha. The data set can be described thus: Binding affinity to Nav1.8 (unknown origin) expressed in HEK293T cells at 1 mg/ml by cell membrane chromatography. It is filed as cell membranes.

T1 sequence (Q9Y5Y9 whole entry, looked up): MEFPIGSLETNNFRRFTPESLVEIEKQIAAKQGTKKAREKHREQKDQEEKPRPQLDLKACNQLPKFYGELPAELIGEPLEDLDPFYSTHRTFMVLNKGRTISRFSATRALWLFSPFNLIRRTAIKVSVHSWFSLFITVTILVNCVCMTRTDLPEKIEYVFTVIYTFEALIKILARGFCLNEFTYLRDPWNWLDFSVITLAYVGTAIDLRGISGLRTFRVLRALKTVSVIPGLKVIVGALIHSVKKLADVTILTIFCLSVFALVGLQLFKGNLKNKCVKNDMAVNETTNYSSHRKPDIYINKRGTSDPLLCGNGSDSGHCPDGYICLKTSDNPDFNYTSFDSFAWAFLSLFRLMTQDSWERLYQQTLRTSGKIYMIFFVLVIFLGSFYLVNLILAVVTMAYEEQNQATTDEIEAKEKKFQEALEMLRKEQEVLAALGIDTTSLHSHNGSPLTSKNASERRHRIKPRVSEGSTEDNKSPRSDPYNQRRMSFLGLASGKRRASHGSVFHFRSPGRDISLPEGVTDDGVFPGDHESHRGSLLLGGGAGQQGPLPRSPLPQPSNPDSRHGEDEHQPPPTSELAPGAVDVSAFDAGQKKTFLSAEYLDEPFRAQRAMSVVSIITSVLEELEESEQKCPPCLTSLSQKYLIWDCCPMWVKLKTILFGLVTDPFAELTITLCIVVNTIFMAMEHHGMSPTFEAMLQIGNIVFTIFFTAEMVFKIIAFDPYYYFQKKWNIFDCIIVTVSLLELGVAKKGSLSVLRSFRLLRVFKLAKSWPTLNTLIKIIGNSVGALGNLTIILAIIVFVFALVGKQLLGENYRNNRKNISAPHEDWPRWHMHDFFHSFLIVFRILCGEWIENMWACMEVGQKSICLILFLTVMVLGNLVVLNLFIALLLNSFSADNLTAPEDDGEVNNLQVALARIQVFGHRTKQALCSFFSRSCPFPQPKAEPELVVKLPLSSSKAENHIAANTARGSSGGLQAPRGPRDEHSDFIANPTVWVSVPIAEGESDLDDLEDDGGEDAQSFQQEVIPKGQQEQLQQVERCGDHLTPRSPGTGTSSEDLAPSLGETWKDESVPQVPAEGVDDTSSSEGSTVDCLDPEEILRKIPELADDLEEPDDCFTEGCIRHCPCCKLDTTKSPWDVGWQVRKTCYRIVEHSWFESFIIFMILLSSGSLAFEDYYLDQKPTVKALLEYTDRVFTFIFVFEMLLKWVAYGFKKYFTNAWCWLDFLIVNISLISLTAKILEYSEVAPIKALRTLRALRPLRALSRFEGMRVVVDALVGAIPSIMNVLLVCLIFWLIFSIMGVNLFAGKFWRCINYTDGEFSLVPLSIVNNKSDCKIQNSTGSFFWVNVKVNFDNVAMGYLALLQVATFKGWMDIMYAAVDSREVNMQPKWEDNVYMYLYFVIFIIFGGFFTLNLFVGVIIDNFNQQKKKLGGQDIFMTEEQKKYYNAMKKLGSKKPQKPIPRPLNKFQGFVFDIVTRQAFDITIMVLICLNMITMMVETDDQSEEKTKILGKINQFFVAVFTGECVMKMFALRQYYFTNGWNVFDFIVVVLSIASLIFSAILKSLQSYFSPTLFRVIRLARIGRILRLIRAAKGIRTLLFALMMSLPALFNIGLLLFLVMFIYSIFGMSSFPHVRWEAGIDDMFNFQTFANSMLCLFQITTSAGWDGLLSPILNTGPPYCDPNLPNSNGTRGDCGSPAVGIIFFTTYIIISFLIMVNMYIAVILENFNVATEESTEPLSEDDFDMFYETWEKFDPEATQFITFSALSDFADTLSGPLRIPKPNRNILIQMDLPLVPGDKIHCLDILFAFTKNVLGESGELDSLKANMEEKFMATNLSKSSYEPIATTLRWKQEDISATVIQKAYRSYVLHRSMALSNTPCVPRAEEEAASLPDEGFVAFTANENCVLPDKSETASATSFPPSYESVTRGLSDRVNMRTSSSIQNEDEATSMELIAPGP

`CC(C)c1cccc(C(C)C)c1OC(=O)OCCN1CCN(CCO)CC1.Cl`: the t1/2 in data set [1] came out at 63.54 min.

As to `CC1CC(C)CN(CCCOC(=O)Oc2c(C(C)C)cccc2C(C)C)C1.Cl` (configuration not stated), the t1/2 in data set [1] was determined as 3.428 min.

`CC(C)c1cccc(C(C)C)c1Oc1ccc(C[C@@H](N)C(N)=O)cc1`: the inhibition entry in data set [2] is “Active”.

`CC(C)c1cccc(C(C)C)c1OC(=O)CCN1CCOCC1`: in data set [3], the Retention time was 0.9 min.

Take `CC(C)c1cccc(C(C)C)c1OC(=O)OCCN1CCSCC1.Cl`: in data set [1], the t1/2 is on record as 4.03 min.

For `COc1ccc(CNc2c(C(C)C)cccc2C(C)C)cc1OCC(N)=O`, in data set [2], the inhibition entry was “Active”.

On to `CC(C)c1cccc(C(C)C)c1OC(=O)CN1CCS(=O)(=O)CC1.Cl`, for which the t1/2 in data set [1] is more than 30 min.

On to `Cc1cc(COc2c(C(C)C)cccc2C(C)C)cc(C)c1CN`, for which, in data set [2], the inhibition entry was “Active”.

In the case of `CC(C)c1cccc(C(C)C)c1O`, the result in data set [4] was inactive. Besides, in data set [5], the outcome was Active.

Regarding `CCN1CCN(CC(=O)Oc2c(C(C)C)cccc2C(C)C)CC1.Cl`, the t1/2 in data set [1] is recorded as more than 120 min.

Regarding `CC1CN(CC(=O)Oc2c(C(C)C)cccc2C(C)C)CC(C)O1.Cl` (configuration not stated), the t1/2 in data set [1] is given as 7.227 min. The Retention time in data set [3] was 0.5 min.

Turning to `CC(C)c1cccc(C(C)C)c1C(=O)c1ccc2c(CN(C)C)c[nH]c2c1`, the inhibition result in data set [2] is “Active”.

For `CC(C)c1cccc(C(C)C)c1OC(=O)CN1CCN(C(C)C)CC1.Cl`, in data set [1], the t1/2 is reported as more than 120 min.

For the compound `COc1cc(-c2cc(C(=O)O)n[nH]2)ccc1Oc1c(C(C)C)cccc1C(C)C`, in data set [2], the inhibition entry is “Active”.

With `CC(C)c1cccc(C(C)C)c1OC(=O)CN1CCN(CCO)CC1.Cl`, the t1/2 in data set [1] is listed as more than 120 min.

`CC(C)c1cccc(C(C)C)c1OC(=O)CN1CCOCC1C` (configuration not stated): in data set [3], the Retention time was determined as 0.8 min.

`CC(C)c1cccc(C(C)C)c1OC1CCN(c2ccc(C(=O)O)cc2)CC1`: the inhibition entry in data set [2] is “Active”.

Consider `CCN1CCN(CCOC(=O)Oc2c(C(C)C)cccc2C(C)C)CC1.Cl`, for which the t1/2 in data set [1] came to 4.684 min.

As to `CCN1CCN(CCC(=O)Oc2c(C(C)C)cccc2C(C)C)CC1.Cl`, the t1/2 in data set [1] is listed as more than 120 min.

`CC(C)c1cccc(C(C)C)c1OC(=O)OCCN1CCCCC1`: in data set [3], the Retention time came to 1 min.

As to `Cc1nccn1Cc1ccc(C(=O)c2c(C(C)C)cccc2C(C)C)o1`, in data set [2], the inhibition entry was “Active”.

Regarding `CC(C)c1cccc(C(C)C)c1C(=O)CSc1cccc[n+]1[O-]`, the inhibition result in data set [2] is “Active”.

As for `Cc1cc(F)ccc1Oc1cc(C(F)(F)F)ccc1C(=O)Nc1ccn(COP(=O)(O)O)c(=O)c1`, the Retention time in data set [3] is 2.6 min.

As to `CCCN(CCO)CCOC(=O)Oc1c(C(C)C)cccc1C(C)C.Cl`, the t1/2 in data set [1] is recorded as less than 8.609 min.

As for `CC(C)c1cccc(C(C)C)c1OC(=O)CN1CCOCC1`, the Retention time in data set [3] came out at 0.5 min.

For `CC(C)c1cccc(C(C)C)c1OC(=O)OCCN1CCN(C(C)C)CC1.Cl`, the t1/2 in data set [1] is more than 120 min.

As for `CC1CN(CCCOC(=O)Oc2c(C(C)C)cccc2C(C)C)CC(C)O1` (configuration not stated), the Retention time in data set [3] turned out to be 12.4 min.

On to `CC1CC(C)CN(CC(=O)Oc2c(C(C)C)cccc2C(C)C)C1` (configuration not stated), for which, in data set [3], the Retention time was more than 110 min.

Regarding `CC(C)c1cccc(C(C)C)c1OC(=O)CN1CCCCC1`, the outcome in data set [4] was Active. Further, the survival in data set [6] stood at 100%.

`CC1CC(C)CN(CCOC(=O)Oc2c(C(C)C)cccc2C(C)C)C1.Cl` (configuration not stated): the t1/2 in data set [1] amounted to 9.305 min. For the same compound, the Retention time in data set [3] is more than 110 min.

As for `COCCN(CCOC)CCOC(=O)Oc1c(C(C)C)cccc1C(C)C.Cl`, the t1/2 in data set [1] amounted to 6.925 min.

Broadly, the ED50 is the dose that gives a 50% effect, or the effect in half of the subjects. On to `CCN(CC)CC(=O)Oc1c(C(C)C)cccc1C(C)C.Cl`, for which the t1/2 in data set [1] was determined as 4.07 min. In addition, the Retention time in data set [3] was found to be 11.4 min. The compound further showed an ED50 in data set [7] of 77 µmol/kg. Besides, the outcome in data set [4] was Active. In data set [6], the survival was 100%.

As for `CC(C)c1cccc(C(C)C)c1OC(=O)CN1CCSCC1.Cl`, the t1/2 in data set [1] is 22.97 min.

In the case of `CC(C)c1cccc(C(C)C)c1C(=O)c1ccc(N(C)CCS(=O)(=O)O)cc1`, the result in data set [4] and in data set [8] was Active. Also, in data set [2], the inhibition entry was “Active”.

Regarding `CCN(CC)CCC(=O)Oc1c(C(C)C)cccc1C(C)C.Cl`, the t1/2 in data set [1] is given as 3.288 min. Moreover, the Retention time in data set [3] worked out at 18.5 min. In data set [7], the median effective dose (ED50) amounted to 64 µmol/kg. Also, in data set [4], the outcome was Active. The survival in data set [6] was found to be 100%.

On to `CC1CN(CCC(=O)Oc2c(C(C)C)cccc2C(C)C)CC(C)O1.Cl` (configuration not stated), for which the t1/2 in data set [1] was found to be 1.429 min. The Retention time in data set [3] was 3.1 min.

Regarding `COCCN(CCOC)CC(=O)Oc1c(C(C)C)cccc1C(C)C.Cl`, in data set [1], the t1/2 was found to be 6.712 min.

Take `CCN(CC)CCCOC(=O)Oc1c(C(C)C)cccc1C(C)C.Cl`: in data set [1], the t1/2 is recorded as less than 8.609 min. For the same compound, the Retention time in data set [3] was 37.1 min.

For the compound `CC1CN(CCOC(=O)Oc2c(C(C)C)cccc2C(C)C)CC(C)O1` (configuration not stated), the Retention time in data set [3] amounted to 11.8 min.

For the compound `CC(C)c1cccc(C(C)C)c1OC(=O)CCN1CCN(C(C)C)CC1.Cl`, in data set [1], the t1/2 is recorded as more than 120 min.

Take `Cc1cc(C(=O)c2c(C(C)C)cccc2C(C)C)ccc1N1C(=O)C=CC1=O`: in data set [2], the inhibition result was “Active”.
